From patent US20170073337A1, “DIHYDROTHIAZINE AND DIHYDROOXAZINE DERIVATIVES HAVING BACE1 INHIBITORY ACTIVITY” (Shionogi & Co., Ltd., priority 2014, published 2017)
pIC50: −log10 of the molar value.

What was measured:
[1] = molecular target: T1, CYP2D6 (Homo sapiens, UniProt P10635); test: CYP inhibition test (CYP2D6); assay type: in vitro ADME; details: pooled human liver microsomes; dextromethorphan O-demethylation
T1 construct: The commercially available pooled human liver microsomes are used as an enzyme resource; from tissue; host or cells: pooled human liver microsomes
T1 sequence (P10635 whole entry): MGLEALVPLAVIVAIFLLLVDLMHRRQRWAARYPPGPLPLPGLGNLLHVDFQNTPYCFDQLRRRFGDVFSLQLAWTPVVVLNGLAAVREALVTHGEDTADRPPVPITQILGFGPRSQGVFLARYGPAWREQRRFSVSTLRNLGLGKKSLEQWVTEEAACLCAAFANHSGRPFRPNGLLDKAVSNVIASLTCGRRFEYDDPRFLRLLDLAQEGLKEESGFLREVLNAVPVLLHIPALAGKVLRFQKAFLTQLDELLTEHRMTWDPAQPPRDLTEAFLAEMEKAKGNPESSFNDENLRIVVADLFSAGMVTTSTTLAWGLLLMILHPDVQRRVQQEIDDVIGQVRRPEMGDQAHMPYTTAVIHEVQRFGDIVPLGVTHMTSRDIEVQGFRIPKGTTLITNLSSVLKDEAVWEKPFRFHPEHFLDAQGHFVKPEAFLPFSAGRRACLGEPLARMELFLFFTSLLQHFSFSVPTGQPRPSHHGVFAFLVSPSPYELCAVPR
Method in brief: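 Pooled human liver microsomes (0.2 mg protein/mL) were incubated at 37 °C with NADPH, compound at 1, 5, 10, 20 μmol/L and marker substrates: tolbutamide 100 μmol/L (2C9), S-mephenytoin 50 μmol/L (2C19), dextromethorphan 5 μmol/L (2D6), terfenadine 1 μmol/L (3A4). Metabolites were measured by LC/MS/MS; IC50 came from logistic fitting against DMSO control.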

[2] = Brain distribution studies; assay type: in vivo; details: rat, brain / plasma, iv, 0.5 mg/mL/kg, 30 minutes later, area ratio brain/plasma
Method: Compound of the present invention was intravenously administered to a rat at 0.5 mg/mL/kg dosage. 30 minutes later, all blood was drawn from the abdominal aorta under isoflurane anesthesia for death from exsanguination. […] The obtained blood was used as plasma after centrifuging. The control plasma was added to the brain sample at 1:1. The control brain homogenate was added to the plasma sample at 1:1. Each sample was measured using LC/MS/MS. The obtained area ratio (a brain/plasma) was used for the brain Kp value.

[3] = molecular target: T2, P-gp (MDR1 expressing LLC-PK1 cells) (Homo sapiens, UniProt P08183); test: P-gp substrate test; assay type: in vitro ADME; details: net flux = Efflux Ratio in MDR1 expressing cells / Efflux Ratio in parent LLC-PK1 cells
T2 construct: host or cells: LLC-PK1
T2 sequence (P08183 whole entry): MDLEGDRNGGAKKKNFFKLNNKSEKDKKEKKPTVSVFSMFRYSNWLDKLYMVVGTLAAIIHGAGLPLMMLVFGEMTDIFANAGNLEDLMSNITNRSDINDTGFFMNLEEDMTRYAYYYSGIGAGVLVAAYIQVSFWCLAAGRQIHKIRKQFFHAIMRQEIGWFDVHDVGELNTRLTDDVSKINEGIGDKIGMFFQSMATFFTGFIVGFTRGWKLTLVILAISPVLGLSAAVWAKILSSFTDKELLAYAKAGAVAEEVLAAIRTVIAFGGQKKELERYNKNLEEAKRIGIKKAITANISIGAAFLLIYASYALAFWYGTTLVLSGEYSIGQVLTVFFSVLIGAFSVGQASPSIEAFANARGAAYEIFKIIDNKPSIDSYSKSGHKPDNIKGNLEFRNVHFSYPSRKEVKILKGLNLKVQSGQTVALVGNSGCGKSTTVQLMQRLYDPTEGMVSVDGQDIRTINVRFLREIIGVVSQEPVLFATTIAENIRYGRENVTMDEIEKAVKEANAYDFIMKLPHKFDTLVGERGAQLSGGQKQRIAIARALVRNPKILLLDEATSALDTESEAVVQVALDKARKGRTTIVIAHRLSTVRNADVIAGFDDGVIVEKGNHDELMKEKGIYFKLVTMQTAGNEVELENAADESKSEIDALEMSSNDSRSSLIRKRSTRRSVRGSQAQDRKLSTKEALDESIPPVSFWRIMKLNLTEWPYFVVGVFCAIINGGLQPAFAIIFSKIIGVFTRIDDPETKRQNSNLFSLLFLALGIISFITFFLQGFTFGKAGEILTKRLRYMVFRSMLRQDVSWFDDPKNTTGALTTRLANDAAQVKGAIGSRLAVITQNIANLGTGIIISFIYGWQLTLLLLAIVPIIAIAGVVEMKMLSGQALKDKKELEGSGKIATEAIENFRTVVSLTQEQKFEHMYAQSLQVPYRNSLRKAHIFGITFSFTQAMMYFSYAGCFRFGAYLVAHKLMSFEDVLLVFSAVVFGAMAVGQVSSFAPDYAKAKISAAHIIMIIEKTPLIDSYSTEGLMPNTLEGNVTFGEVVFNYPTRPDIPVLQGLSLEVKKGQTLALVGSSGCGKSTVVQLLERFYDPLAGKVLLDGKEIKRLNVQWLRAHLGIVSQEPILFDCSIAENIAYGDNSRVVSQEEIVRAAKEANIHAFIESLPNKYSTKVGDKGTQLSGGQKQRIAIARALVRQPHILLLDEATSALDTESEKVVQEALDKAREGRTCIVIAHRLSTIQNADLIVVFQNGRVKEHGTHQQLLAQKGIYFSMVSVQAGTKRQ
Method: • 1. Cell line: • a. MDR/LLC-PK1 (Becton Dickinson) • b. LLC-PK1 (Becton Dickinson) • 2. Reference substrates: • a Digoxin (2 μM)
1. […] After incubation for designed time at 37° C., an aliquot (50 μL) of transport buffer in the donor and receiver side were collected. Assay was performed by duplicate or triplicate. 3. Reference substrate and the present invention in the aliquot was quantified by LC/MS/MS.
Pc(cm/sec)−Permeated amount (pmol)/area of cell membrane (cm2)/initial concentration (nM)/incubation time (sec)
The efflux ratio was calculated using the following equation:
Efflux Ratio=Basolateral-to-Apical Pe/Apical-to-Basolateral Pe
The net flux was calculated using the following equation
Net flux=Efflux Ratio in MDK1 expressing cells/Efflux Ratio in parent cells

C[C@]1(c2cc(NC(=O)c3ccc(C#N)cn3)ccc2F)N=C(N)O[C@H](CF)[C@@H]1OCC(F)(F)F [Compound I-10]
pIC50 [1]: ≤ 4.70
Kp at 0.5 h [2]: 1.1
ER ratio (Cell: MDR1/LLC-PK1) [3]: 4

C[C@]1(c2cc(NC(=O)c3ccc(F)cn3)ccc2F)N=C(N)O[C@H](CF)[C@@H]1OCC(F)(F)F [Compound I-11]
pIC50 [1]: ≤ 5.00

C[C@]1(c2cc(NC(=O)c3cnc(OCF)cn3)ccc2F)N=C(N)O[C@H](CF)[C@@H]1OCC(F)(F)F [Compound I-12]
pIC50 [1]: ≤ 5.00
Kp at 0.5 h [2]: 1

C[C@H](F)[C@H]1OC(N)=N[C@](C)(c2cc(NC(=O)c3ccc(C#N)cn3)ccc2F)[C@H]1F [Compound I-13]
pIC50 [1]: ≤ 4.70
Kp at 0.5 h [2]: 0.56
ER ratio (Cell: MDR1/LLC-PK1) [3]: 2.4

C[C@@H](F)[C@H]1OC(N)=N[C@](C)(c2cc(NC(=O)c3ccc(C#N)cn3)ccc2F)[C@H]1F [Compound I-15]
pIC50 [1]: ≤ 4.70
Kp at 0.5 h [2]: 0.79
ER ratio (Cell: MDR1/LLC-PK1) [3]: 2.7

COc1cnc(C(=O)Nc2ccc(F)c([C@@]3(C)N=C(N)O[C@H]([C@H](C)F)[C@@H]3F)c2)cn1 [Compound I-17]
ER ratio (Cell: MDR1/LLC-PK1) [3]: 0.73

CO[C@H]1[C@@H](CF)OC(N)=N[C@]1(C)c1cc(NC(=O)c2ccc(C#N)cn2)ccc1Cl [Compound I-18]
pIC50 [1]: ≤ 4.70

CO[C@H]1[C@@H](CF)OC(N)=N[C@]1(C)c1cc(NC(=O)c2cnc(OCF)cn2)ccc1Cl [Compound I-19]
Kp at 0.5 h [2]: 0.51

CO[C@H]1[C@@H](CF)OC(N)=N[C@]1(C)c1cc(NC(=O)c2ccc(F)cn2)ccc1Cl [Compound I-20]
pIC50 [1]: ≤ 4.70

CO[C@H]1[C@@H](CF)OC(N)=N[C@]1(C)c1cc(NC(=O)c2cnc(OCF)cn2)ccc1F [Compound I-24]
pIC50 [1]: ≤ 5.00

CO[C@H]1[C@@H](CF)OC(N)=N[C@]1(C)c1cc(NC(=O)c2ccc(F)cn2)ccc1F [Compound I-25]
pIC50 [1]: ≤ 4.70

C[C@@H]1[C@@H](C(F)(F)F)OC(N)=N[C@]1(C)c1cc(NC(=O)c2ccc(C#N)cn2)ccc1F [Compound I-27]
pIC50 [1]: ≤ 4.70

C[C@H]1[C@H](C(F)(F)F)OC(N)=N[C@]1(C)c1cc(NC(=O)c2ccc(C#N)cn2)ccc1F [Compound I-29]
pIC50 [1]: ≤ 4.70

C[C@H]1[C@@H](C(F)F)OC(N)=N[C@]1(C)c1cc(NC(=O)c2ccc(C#N)cn2)ccc1F [Compound I-31]
pIC50 [1]: ≤ 4.70
ER ratio (Cell: MDR1/LLC-PK1) [3]: 2.9

Cc1nc(C(=O)Nc2ccc(F)c([C@@]3(C)N=C(N)O[C@H](C(F)(F)F)[C@@H]3C)c2)co1 [Compound I-32]
pIC50 [1]: ≤ 5.00

C[C@H]1[C@@H](C(F)F)OC(N)=N[C@]1(C)c1cc(NC(=O)c2cnc(OCF)cn2)ccc1F [Compound I-33]
ER ratio (Cell: MDR1/LLC-PK1) [3]: 3.2

C[C@]1(c2cc(NC(=O)c3cnc(OCF)cn3)ccc2F)N=C(N)OCC12CC(F)(F)C2 [Compound I-44]
pIC50 [1]: ≤ 5.00
ER ratio (Cell: MDR1/LLC-PK1) [3]: 4.6

C[C@]1(c2cc(NC(=O)c3ccc(F)cn3)ccc2F)N=C(N)OCC12CC(F)(F)C2 [Compound I-45]
pIC50 [1]: ≤ 4.70

C[C@H]1SC(N)=N[C@](C)(c2cc(NC(=O)c3coc(CF)n3)ccc2F)[C@H]1F [Compound I-49]
pIC50 [1]: ≤ 4.70

COc1ccc(C(=O)Nc2ccc(F)c([C@@]3(C)N=C(N)S[C@H](C)[C@@H]3F)c2)nc1 [Compound I-50]
ER ratio (Cell: MDR1/LLC-PK1) [3]: 1.1

C[C@H]1SC(N)=N[C@](C)(c2cc(NC(=O)c3ccc(OCF)cn3)ccc2F)[C@H]1F [Compound I-51]
ER ratio (Cell: MDR1/LLC-PK1) [3]: 0.56

Cc1cc(C#N)cnc1C(=O)Nc1ccc(F)c([C@@]2(C)N=C(N)S[C@H](C)[C@@H]2F)c1 [Compound I-52]
pIC50 [1]: ≤ 4.70
Kp at 0.5 h [2]: 0.63
ER ratio (Cell: MDR1/LLC-PK1) [3]: 2.1

C[C@H]1SC(N)=N[C@](C)(c2cc(NC(=O)c3ncc(OCC(F)(F)F)cn3)ccc2F)[C@H]1F [Compound I-53]
pIC50 [1]: ≤ 4.70

COc1cnc(C(=O)Nc2ccc(F)c([C@@]3(C)N=C(N)SCC34CC(F)(F)C4)c2)cn1 [Compound I-55]
ER ratio (Cell: MDR1/LLC-PK1) [3]: 0.9

C[C@]1(c2cc(NC(=O)c3ccc(C#N)cn3)ccc2F)N=C(N)SCC12CC(F)(F)C2 [Compound I-59]
ER ratio (Cell: MDR1/LLC-PK1) [3]: 1.2

C[C@H]1SC(N)=N[C@](C)(c2cc(NC(=O)c3cnc(OCF)cn3)ccc2F)C12CC(F)(F)C2 [Compound I-62]
Kp at 0.5 h [2]: 4.8
ER ratio (Cell: MDR1/LLC-PK1) [3]: 0.7

C[C@H]1SC(N)=N[C@](C)(c2cc(NC(=O)c3ncc(C#N)cc3Cl)ccc2F)[C@H]1F [Compound I-64]
pIC50 [1]: ≤ 4.70
ER ratio (Cell: MDR1/LLC-PK1) [3]: 3.2

C[C@H]1SC(N)=N[C@](C)(c2cc(NC(=O)c3cnc(C(F)F)cn3)ccc2F)[C@H]1F [Compound I-65]
Kp at 0.5 h [2]: 1.7
ER ratio (Cell: MDR1/LLC-PK1) [3]: 1.1

CC[C@H]1SC(N)=N[C@](C)(c2cc(NC(=O)c3cnc(OCF)cn3)ccc2F)[C@H]1F [Compound I-66]
ER ratio (Cell: MDR1/LLC-PK1) [3]: 0.6

CC[C@H]1SC(N)=N[C@](C)(c2cc(NC(=O)c3ccc(OCF)cn3)ccc2F)[C@H]1F [Compound I-67]
ER ratio (Cell: MDR1/LLC-PK1) [3]: 0.9

CC[C@H]1SC(N)=N[C@](C)(c2cc(NC(=O)c3ccc(F)cn3)ccc2F)[C@H]1F [Compound I-70]
pIC50 [1]: ≤ 5.00

COc1cnc(C(=O)Nc2ccc(F)c([C@@]3(C)N=C(N)O[C@H]([C@@H](C)F)[C@@H]3F)c2)cn1 [Compound I-71]
ER ratio (Cell: MDR1/LLC-PK1) [3]: 0.92

CC(F)(F)[C@H]1OC(N)=N[C@](C)(c2cc(NC(=O)c3cnc(OCC(F)(F)F)cn3)ccc2F)[C@H]1F [Compound I-75]
ER ratio (Cell: MDR1/LLC-PK1) [3]: 0.8

CC#CCOc1cnc(C(=O)Nc2ccc(F)c([C@@]3(C)N=C(N)O[C@H](C(C)(F)F)[C@@H]3F)c2)cn1 [Compound I-76]
ER ratio (Cell: MDR1/LLC-PK1) [3]: 1

CC(F)(F)[C@H]1OC(N)=N[C@](C)(c2cc(NC(=O)c3cnc(OCC(F)F)cn3)ccc2F)[C@H]1F [Compound I-77]
ER ratio (Cell: MDR1/LLC-PK1) [3]: 1.2

COCC(F)(F)[C@H]1OC(N)=N[C@](C)(c2cc(NC(=O)c3cnc(OCF)cn3)ccc2F)[C@H]1F [Compound I-79]
ER ratio (Cell: MDR1/LLC-PK1) [3]: 1.7

C[C@]1(c2cc(NC(=O)c3cnc(OCF)cn3)ccc2F)N=C(N)O[C@H](C(F)(F)C2CC2)[C@@H]1F [Compound I-82]
ER ratio (Cell: MDR1/LLC-PK1) [3]: 0.96

C[C@H]1SC(N)=N[C@](C)(c2cc(NC(=O)c3cnc(OCC4CC4)cn3)ccc2F)[C@H]1F [Compound I-85]
pIC50 [1]: ≤ 4.70

COc1cnc(C(=O)Nc2ccc(F)c([C@@]3(C)N=C(N)O[C@H](C(F)F)[C@@H]3C)c2)cn1 [Compound I-86]
ER ratio (Cell: MDR1/LLC-PK1) [3]: 1.5

CO[C@H]1[C@@H](C)SC(N)=N[C@]1(C)c1cc(NC(=O)c2cnc(OCF)cn2)ccc1F [Compound I-87]
pIC50 [1]: ≤ 4.70
ER ratio (Cell: MDR1/LLC-PK1) [3]: 3.4

CO[C@H]1[C@@H](C)SC(N)=N[C@]1(C)c1cc(NC(=O)c2ccc(C#N)cn2)ccc1F [Compound I-88]
pIC50 [1]: ≤ 4.70

CO[C@H]1[C@@H](C)SC(N)=N[C@]1(C)c1cc(NC(=O)c2ccc(F)cn2)ccc1F [Compound I-89]
pIC50 [1]: ≤ 4.70

COc1cnc(C(=O)Nc2ccc(F)c([C@@]3(C)N=C(N)S[C@H](C)[C@@H]3OC)c2)cn1 [Compound I-90]
pIC50 [1]: ≤ 4.70
ER ratio (Cell: MDR1/LLC-PK1) [3]: 3.1

COC[C@H]1SC(N)=N[C@](C)(c2cc(NC(=O)c3cnc(OCF)cn3)ccc2F)[C@H]1F [Compound I-91]
Kp at 0.5 h [2]: 1
ER ratio (Cell: MDR1/LLC-PK1) [3]: 1.5

C[C@]1(c2cc(NC(=O)c3ccc(C#N)cn3)ccc2F)N=C(N)O[C@H](C2(F)CC2)[C@@H]1F [Compound I-96]
pIC50 [1]: ≤ 4.70
ER ratio (Cell: MDR1/LLC-PK1) [3]: 2.0

C[C@]1(c2cc(NC(=O)c3ccc(OCF)cn3)ccc2F)N=C(N)O[C@H](C2(F)CC2)[C@@H]1F [Compound I-101]
ER ratio (Cell: MDR1/LLC-PK1) [3]: 1.1

COc1cnc(C(=O)Nc2cccc([C@@]3(C)N=C(N)S[C@H](C)[C@@H]3F)c2)cn1 [Compound I-103]
pIC50 [1]: ≤ 4.70
ER ratio (Cell: MDR1/LLC-PK1) [3]: 1.4

C[C@H]1SC(N)=N[C@](C)(c2cccc(NC(=O)c3cnc(OCF)cn3)c2)[C@H]1F [Compound I-104]
pIC50 [1]: ≤ 4.70
ER ratio (Cell: MDR1/LLC-PK1) [3]: 1.4

C[C@H]1SC(N)=N[C@](C)(c2cccc(NC(=O)c3cnc(C(F)F)cn3)c2)[C@H]1F [Compound I-106]
pIC50 [1]: ≤ 4.70
ER ratio (Cell: MDR1/LLC-PK1) [3]: 1.9

COc1ccc(C(=O)Nc2ccc(F)c([C@@]3(C)N=C(N)S[C@H](C)[C@@H]3F)c2)nn1 [Compound I-108]
pIC50 [1]: ≤ 5.00
ER ratio (Cell: MDR1/LLC-PK1) [3]: 1.4

C[C@]1(c2cc(NC(=O)c3cnc(OCF)cn3)ccc2F)N=C(N)S[C@H](CO)[C@@H]1F [Compound I-109]
ER ratio (Cell: MDR1/LLC-PK1) [3]: 8.5
